Measurements as given in US20130273546A1, “LOW TEMPERATURE ENZYME AND METHOD THEREOF” (UNIVERSITI PUTRA MALAYSIA, priority 2009, published 2013).

Legend:
[1] = test system: Leucosporidium antarcticum strain PI12; test: Growth of the Antarctic isolate on solid media with antibiotics; type: cell-based; conditions: 10 days at 4° C.
Protocol: Antarctic microorganism isolated strain was grown on different types of solid media (nutrient agar, sabouroud dextrose agar and potato dextrose agar) and several antibiotics for 10 days at 4° C. and the culture characteristics (colony colour, shape, texture) were determined. Simple staining was performed to identify the cell morphology, arrangement and size of the psychrophilic isolate PI12. Scanning electron microscopy (SEM) and transmission electron microscopy (TEM) were also conducted to study the surface features and the internal ultrastructure in thin sections of the PI12 cells. […] The growth for this microorganism was best at 4° C. and decreased through the temperature range tested (4° C.-20° C.) but no growth at over 20° C. […] The Antarctic microorganism strain PI12 was grown and screened qualitatively for the protease production on skim milk agar. The plate was incubated at 4° C. for 10 days. Protease was excreted out of the cells into the surrounding media, catalyzing the breakdown of casein and formed clearing zones around the growth area.

azocasein = test: Protease activity assay with azocasein as substrate (modified method of Brock et al.), culture supernatants; type: biochemical; conditions: GpPro2 20.3 U/mL versus wild-type 1.0 U/mL
Protocol: After 10 days of incubation, the supernatant was assayed for protease activity. Protease activity was determined by the modified method of Brock et al. (1982). Azocasein (0.5%, 1 mL) was dissolved in 0.1 M Tris-HCl-2 mM CaCl2 pH 7 was pipetted into vials and pre-incubated at 4° C. The reaction was initiated by addition of 100 μL of enzyme solution for 30 min (unless stated otherwise). An equal volume of 10% (w/v) trichloroacetic acid (TCA) was added to terminate the reaction and the mixture was allowed to stand at room temperature for 30 min before centrifugation in eppendorf microcentrifuge at 13,000×g for 10 min. The supernatant was removed and mixed with an equal volume of 1 N NaOH. The absorbance was read at 450 nm using UV/Visible spectrophotometer Ultraspec 2100 pro (Amersham Biosciences, USA). One unit of azocaseinase activity was defined as the amount of enzyme activity which produces an absorbance change of 0.001 per min at 4° C. under the standard assay condition. For control, the enzyme was added at the end of the incubation period. […]
Assay activity of recombinant PI12 protease was determined by the modified method of Brock et a (1982) the assay activity for recombinant PI12 protease was performed at 15° C.

[2] = Temperature profile and storage stability of the protease activity; type: biochemical

Row | Molecule | resistance of the microorganism toward antibiotic [1] | further results
1 | CN[C@@H]1[C@H](O[C@H]2[C@H](O[C@H]3[C@H](O)[C@@H](O)[C@H](N=C(N)N)[C@@H](O)[C@@H]3N=C(N)N)O[C@@H](C)[C@]2(O)C=O)O[C@@H](CO)[C@H](O)[C@H]1O [streptamycin] | resistance | 
2 | CC1(C)S[C@@H]2[C@H](NC(=O)[C@H](N)c3ccccc3)C(=O)N2[C@H]1C(=O)O [ampicillin] | resistance | 
3 | O=C(N[C@H](CO)[C@H](O)c1ccc([N+](=O)[O-])cc1)C(Cl)Cl [chloramphenicol] | resistance | 
4 | recombinant PI12 protease: cold-adapted serine protease of L. antarcticum PI12 (SEQ ID NO: 2) expressed in Pichia pastoris (protein, listed as Leucosporidium antarcticum) MLFLPVLLLLLPGVTAFLNPVTNRATNAISSTQYLSNAYILELDLSTPGLVKRDSTPDSILEDVLTSVGRNGIKYQLRHRFISPTLFHGASITVPPGISRSQIASLRGIKRVWPVRKFSRPSAVVDADGGGSGFSGSPIKAALMGVKELGKRANAYAGDTFGPHVMTGVNETHEAGLLGAGIKIGVLDTGVDYLNPILGGCFGPGCHMSFGYDLVGDDYDGDNAPVPDVDPFASCDPHGTHVTGIIGALPNAFGFTGVAPAATLGHYRVFGCTGFVGEDIILAGLMRGVEDNCNVLTLSLGGPGGWVKGTPASILIDQIEAQGILVTVATGNSGAEGMFFSESPASTINGLSIASTDVTDLIAYNATVSGQPAIPYLSATPLNVVANSFRVHFTSTDPNNPVDACSPLPAGAPDFANYVTVVQRGTCTFVTKYQNVLNAGGKIVLLYNSEGAGNLPYLTPNGVGIDAVAGLRRSDGLKLLSYYQNANKRLTLRFPKGKIVAGLTDTITGGLISGYSTFGPTNDLYGQPTLSAPGGNILSTFPLSEGGVAVISGTSMSCPFVAGSAAVLMAARASENLTPLEIRSLLTTTAKLTPVSLLGSTPLVSVIRQGGGLVQVAKALAAKTLISPHELLLNDTANANYVQTIKIKNTNSWAMKYTFSSAVAQGLGTFDASGDILPTLDPVAVSGAQATVAFNTRILSVAPGATGSVVATITPPVLPVADAARFPIFSGWIRVNGQGARDSSRNEAYTVPYFGLAAKMIDMQVLDTTETIYGPGYAYPFVIDDAIGDIQSTTTSYSRNLGPTVFARFATGTLHYSLDLVLADIAFTPTYPNSSPATRFVKRSLTQHTSAASHLAKRRVSIATINPKATLVADRQLHSDVPIEGNIFTQPFTGRDYLVDAAPTGSTDRTVTFNGQYAENGLVRTAVTGTSYRFLLRALKISGDAMYEDQYESWLSLPFSFRA |  | recombinant protease activity relative to that produced by wild-type host (azocasein): 20.3 fold
5 | Cold-adapted protease PI12: protease from Leucosporidium antarcticum strain PI12 (NCYC 3391), amino acid sequence SEQ ID NO: 2, GenBank CAQ76821 (protein, listed as Leucosporidium antarcticum) MLFLPVLLLLLPGVTAFLNPVTNRATNAISSTQYLSNAYILELDLSTPGLVKRDSTPDSILEDVLTSVGRNGIKYQLRHRFISPTLFHGASITVPPGISRSQIASLRGIKRVWPVRKFSRPSAVVDADGGGSGFSGSPIKAALMGVKELGKRANAYAGDTFGPHVMTGVNETHEAGLLGAGIKIGVLDTGVDYLNPILGGCFGPGCHMSFGYDLVGDDYDGDNAPVPDVDPFASCDPHGTHVTGIIGALPNAFGFTGVAPAATLGHYRVFGCTGFVGEDIILAGLMRGVEDNCNVLTLSLGGPGGWVKGTPASILIDQIEAQGILVTVATGNSGAEGMFFSESPASTINGLSIASTDVTDLIAYNATVSGQPAIPYLSATPLNVVANSFRVHFTSTDPNNPVDACSPLPAGAPDFANYVTVVQRGTCTFVTKYQNVLNAGGKIVLLYNSEGAGNLPYLTPNGVGIDAVAGLRRSDGLKLLSYYQNANKRLTLRFPKGKIVAGLTDTITGGLISGYSTFGPTNDLYGQPTLSAPGGNILSTFPLSEGGVAVISGTSMSCPFVAGSAAVLMAARASENLTPLEIRSLLTTTAKLTPVSLLGSTPLVSVIRQGGGLVQVAKALAAKTLISPHELLLNDTANANYVQTIKIKNTNSWAMKYTFSSAVAQGLGTFDASGDILPTLDPVAVSGAQATVAFNTRILSVAPGATGSVVATITPPVLPVADAARFPIFSGWIRVNGQGARDSSRNEAYTVPYFGLAAKMIDMQVLDTTETIYGPGYAYPFVIDDAIGDIQSTTTSYSRNLGPTVFARFATGTLHYSLDLVLADIAFTPTYPNSSPATRFVKRSLTQHTSAASHLAKRRVSIATINPKATLVADRQLHSDVPIEGNIFTQPFTGRDYLVDAAPTGSTDRTVTFNGQYAENGLVRTAVTGTSYRFLLRALKISGDAMYEDQYESWLSLPFSFRA |  | optimum temperature [2]: 4 [deg.] C.; enzyme activity retained ([2]; after incubating the enzyme at 4[deg.] C. for about 10 days): One hundred
